The target of one data set is T1, LonP1 C576V (Homo sapiens, UniProt P36776, C576V).
T1 construct: hexa-histidine (N); made in house; host or cells: Rosetta 2 E. coli
T1 sequence (P36776 68-959 C576V): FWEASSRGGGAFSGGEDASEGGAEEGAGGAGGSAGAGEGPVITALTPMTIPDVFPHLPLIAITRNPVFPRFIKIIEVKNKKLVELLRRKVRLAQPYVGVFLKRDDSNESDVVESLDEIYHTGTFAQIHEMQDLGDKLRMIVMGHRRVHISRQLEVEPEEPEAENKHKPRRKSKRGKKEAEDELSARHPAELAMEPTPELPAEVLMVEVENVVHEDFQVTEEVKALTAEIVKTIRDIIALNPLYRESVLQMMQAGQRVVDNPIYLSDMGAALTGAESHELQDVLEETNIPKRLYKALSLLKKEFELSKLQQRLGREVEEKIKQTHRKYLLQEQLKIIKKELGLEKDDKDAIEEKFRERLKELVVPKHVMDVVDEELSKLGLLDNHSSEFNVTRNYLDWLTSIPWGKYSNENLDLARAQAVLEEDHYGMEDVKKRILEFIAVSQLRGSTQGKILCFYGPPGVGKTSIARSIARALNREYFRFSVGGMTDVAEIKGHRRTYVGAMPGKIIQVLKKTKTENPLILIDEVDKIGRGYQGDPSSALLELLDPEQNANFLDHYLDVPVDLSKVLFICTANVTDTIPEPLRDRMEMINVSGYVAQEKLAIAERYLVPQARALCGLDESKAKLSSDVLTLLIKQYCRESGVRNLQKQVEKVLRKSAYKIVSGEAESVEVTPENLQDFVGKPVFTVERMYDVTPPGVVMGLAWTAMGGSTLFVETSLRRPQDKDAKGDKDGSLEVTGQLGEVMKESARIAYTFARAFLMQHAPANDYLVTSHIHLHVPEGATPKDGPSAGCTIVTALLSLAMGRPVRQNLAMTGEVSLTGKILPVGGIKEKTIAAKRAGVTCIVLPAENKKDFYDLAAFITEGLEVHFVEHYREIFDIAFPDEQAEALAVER
In words: Endpoint ATPase assay, LonP1 C576V. In kind it is biochemical. As for the experimental part: Human mitochondrial LonP1 and mutants lacking the predicted mitochondrial targeting sequence were fused to an N-terminal hexa-histidine affinity tag, expressed in Rosetta 2 E. Coli, and purified using a nickel agarose column as previously described ([72]) and protein concentration and buffer exchange carried out using Amicon Ultra centrifugal filtration. LonP1 mutant constructs were obtained from the PCR-based QuikChange Site-Directed Mutagenesis Kit.
ADP-Glo (Promega) assays were performed according to the manufacturer's protocols. Purified wild-type or mutant LonP1 (400 nM monomer), the 26S proteasome (3 nM), or no enzyme controls were preincubated in 96-well plates (60 min, 25 °C) with ten different concentrations of CDDO and its derivatives, TP-82, enoxolone (5 μM) or DMSO vehicle control in buffer (40 mM Tris-HCl (pH 7.5), 20 mM MgCl2, 0.1 mg/ml BSA and 5% DMSO). The 26S and 20S proteasome were also assayed at 0, 0.75, 1.5, 3, 6, and 12 nM in the absence of CDDO derivatives. […] Assay reagents were used to quench further ATPase activity and generate luminescence signals proportional to the concentration of ADP formed. Background (no enzyme control) luminescence values were subtracted, and resultant values were reported as a percentage of the no drug control (100%). […]

The test system of the next data set is T2, 26S proteasome ATPase.
T2 construct: purified from human embryonic kidney cells (HEK293); purchased Boston Biochem Inc.-R&D Systems E-365; host or cells: HEK293
In words: Endpoint ATPase assay, purified 26S proteasome. In kind it is biochemical, human. The settings on record: 26S proteasome 3 nM, Fig. 4A. From the text:
CDDO and CDDO-Methyl (CDDO-Me) were purchased from Cayman Chemical, CDDO-Imidazole (CDDO-Im) was purchased from Tocris. CDDO-anhydride ([20]) and TP-82 ([71]) were synthesized as reported. Other inhibitors in this study were purchased commercially: MG262 (Boston Biochem), bortezomib (LC Labs) and enoxolone (Cayman Chemical). Antibodies recognizing the following antigens were employed in this study: LonP1 (Proteintech, cat. 15440-1-AP), p53 (Calbiochem, cat. 0P43, lot # D00086815), cleaved PARP (Asp214) (BD Biosciences, cat. 552596), procaspase-3 monoclonal antibody (Transduction Laboratories, cat. C31720), actin (Santa Cruz, cat. sc-1615, lot # F0408), heme oxygenase 1 (Santa Cruz, cat. sc-136960, lot # B1516), TFAM kindly provided by Daniel Bogenhagen (Stony Brook University). Human 26S and 20S proteasome purified from human embryonic kidney cells (HEK293) were purchased commercially (Boston Biochem Inc.-R&D Systems, cat. E-365, lot # 35730210 and cat. E-360, lot # 16918510, respectively).
ADP-Glo (Promega) assays were performed according to the manufacturer's protocols. […] Assay reagents were used to quench further ATPase activity and generate luminescence signals proportional to the concentration of ADP formed. Background (no enzyme control) luminescence values were subtracted, and resultant values were reported as a percentage of the no drug control (100%). […]

For the next data set, the system named is HeLa ρ^0 cells. As to the kind of experiment: Cytotoxicity/apoptosis in HeLa ρ^0 cells (cleaved PARP, procaspase 3 immunoblot). Type of data set: cell-based, human. Particulars: 7 h, Fig. 4D. As for the experimental part:
HeLa cells devoid of mitochondrial DNA (HeLa ρ^0) and LCL cells were generated as described previously ([50]). DMEM, RPMI, and fetal bovine serum were purchased from Sigma. All cells were grown with 5% CO2 at 37 °C. LCL cells were cultured in RPMI supplemented with 15% FBS. HeLa Rho 0 cells were cultured in high glucose DMEM (25 mM) (Sigma) supplemented with sodium pyruvate ([…]) and uridine ([…]). CDDO-Me was purchased from Cayman chemicals, and CDDO-AH was synthesized as described previously ([20]). HEK293 cells plated in 60 mm dishes at a confluency of 60 to 70% were transfected with Control or 3′UTR LonP1 siRNA using Lipofectamine 2000 (Invitrogen) and reduced serum OPTI MEM (Sigma) as described in the manufacturer’s protocol to knockdown LonP1, whereas adenoviral transduction was employed to overexpress LonP1. CDDO-Me and CDDO-anhydride were dissolved in DMSO and serially diluted in the respective complete medium and added to HeLa ρ^0 cells and were treated for 7 or 24 h.
Cells were harvested, centrifuged, and washed with PBS and proteins were extracted by adding the lysis buffer (50 mM Tris, [pH 7.5], 300 mM NaCl, and 0.5% Triton X-100) containing 2X Halt phosphatase and protease cocktail inhibitor (Thermo Scientific) for 20 min on ice. After centrifugation at 14,000 rpm for 15 min at 4 °C, the supernatant was collected and estimated for protein by Bradford’s method. […]
In general terms: In western blotting, separated proteins are transferred to a membrane and probed.

As for `CC1(C)CC[C@]2(C(=O)O)CC[C@]3(C)[C@H](C(=O)C=C4[C@@]5(C)C=C(C#N)C(=O)C(C)(C)[C@@H]5CC[C@]43C)[C@@H]2C1` [CDDO, 2-cyano-3,12-dioxooleana-1,9(11)-dien-28-oic acid], on LonP1 C576V, the “Fold increase in inhibition compared with WT” value stood at 2.7. Besides, the IC50 – broadly, the point on the concentration scale where inhibition reaches its midpoint – on LonP1 C576V (end-point ATPase assay, read-out: CDDO IC50) was 5.2 ± 1.5 µM. The “Inhibition of ATP hydrolysis by the 26S proteasome” value in the data set with 26S proteasome ATPase is reported as “failed to inhibit”.
As for `CC1(C)CC[C@]2(C(=O)OC(=O)[C@]34CCC(C)(C)C[C@H]3[C@H]3C(=O)C=C5[C@@]6(C)C=C(C#N)C(=O)C(C)(C)[C@@H]6CC[C@@]5(C)[C@]3(C)CC4)CC[C@]3(C)[C@H](C(=O)C=C4[C@@]5(C)C=C(C#N)C(=O)C(C)(C)[C@@H]5CC[C@]43C)[C@@H]2C1` [CDDO-anhydride], in the data set on HeLa ρ^0 cells, the “Concentration up to which no change in procaspase 3 levels was observed” value is “up to 5 μM”.

These data come from publication PMC8921294, “Inhibition of mitochondrial LonP1 protease by allosteric blockade of ATP binding and hydrolysis via CDDO and its derivatives” (The Journal of Biological Chemistry, 2022).
